Patent US7998950B2, “Antiviral compounds” (Gilead Sciences, Inc., priority 2008, dated 2011)

Tested on: HIV-IIIb
Assay: Antiviral assay in MT-2 cells infected with HIV-IIIb
Type: cell-based
Conditions: Human immunodeficiency virus 1, IIIB, MT2, 120 h, MT-2 cells infected with HIV-IIIb, m.o.i. 0.01, 10% FBS, 5 days at 37° C., CellTiter-Glo chemiluminescence; read-out: EC50 in MT-2 cells

Compound | EC50 [nM]
CC(C)(CO)CNC(=O)c1c(O)c2ncc(Cc3ccc(F)cc3)c3c2n(c1=O)CC(F)(F)CN3 [Example 145] | 9
O=C(NCCc1ncc[nH]1)c1c(O)c2ncc(Cc3ccc(F)cc3)c3c2n(c1=O)CC(F)(F)CN3 [Example 146] | 5.5
Cn1cnnc1CCNC(=O)c1c(O)c2ncc(Cc3ccc(F)cc3)c3c2n(c1=O)CC(F)(F)CN3 [Example 148] | 45.6
O=C(NCC(F)(F)CO)c1c(O)c2ncc(Cc3ccc(F)cc3)c3c2n(c1=O)CC(F)(F)CN3 [Example 149] | 5
O=C(NCC1(CO)CCC1)c1c(O)c2ncc(Cc3ccc(F)cc3)c3c2n(c1=O)CC(F)(F)CN3 [Example 150] | 6
O=C(NCCCN1CCCC1)c1c(O)c2ncc(Cc3ccc(F)cc3)c3c2n(c1=O)CC(F)(F)CN3 [Example 151] | 23
O=C(NCC1(CO)CC1)c1c(O)c2ncc(Cc3ccc(F)cc3)c3c2n(c1=O)CC(F)(F)CN3 [Example 152] | 7
O=C(NCCCN1CCOCC1)c1c(O)c2ncc(Cc3ccc(F)cc3)c3c2n(c1=O)CC(F)(F)CN3 [Example 153] | 12
CC(C)(C#N)CNC(=O)c1c(O)c2ncc(Cc3ccc(F)cc3)c3c2n(c1=O)CC(F)(F)CN3 [Example 154] | 6
O=C(NCCN1CCCC1)c1c(O)c2ncc(Cc3ccc(F)cc3)c3c2n(c1=O)CC(F)(F)CN3 [Example 156] | 34
C[C@@H]1CCCN1CCCNC(=O)c1c(O)c2ncc(Cc3ccc(F)cc3)c3c2n(c1=O)CC(F)(F)CN3 [Example 158] | 8.2
O=C(NCCCN1CCCC1=O)c1c(O)c2ncc(Cc3ccc(F)cc3)c3c2n(c1=O)CC(F)(F)CN3 [Example 161] | 4.2
O=C(NCCN1CCCS1(=O)=O)c1c(O)c2ncc(Cc3ccc(F)cc3)c3c2n(c1=O)CC(F)(F)CN3 [Example 162] | 4.6
CNC(=O)c1c(O)c2ncc(Cc3ccc(F)cc3)c3c2n(c1=O)CC(F)(F)CN3C [Example 163] | 18.5
CNC(=O)[C@@H]1Cn2c(=O)c(C(=O)NCCOC)c(O)c3ncc(Cc4ccc(F)cc4)c(c32)O1 [Example 164] | 37
CCNC(=O)c1c(O)c2ncc(Cc3ccc(F)cc3)c3c2n(c1=O)C[C@@H](C(=O)NC)O3 [Example 165] | 8
CNC(=O)[C@@H]1Cn2c(=O)c(C(=O)NCCCO)c(O)c3ncc(Cc4ccc(F)cc4)c(c32)O1 [Example 166] | 9
CNC(=O)[C@@H]1Cn2c(=O)c(C(N)=O)c(O)c3ncc(Cc4ccc(F)cc4)c(c32)O1 [Example 167] | 25.6
CNC(=O)c1c(O)c2ncc(Cc3ccc(F)cc3)c3c2n(c1=O)C[C@@H](C(N)=O)O3 [Example 168] | 12
CNC(=O)c1c(O)c2ncc(Cc3ccc(F)cc3)c3c2n(c1=O)C[C@@H](C(=O)NCC(C)(C)O)O3 [Example 174] | 2.6
CNC(=O)c1c(O)c2ncc(Cc3ccc(F)cc3)c3c2n(c1=O)C[C@@H](C(=O)NCC(C)(C)C#N)O3 [Example 175] | 2.4
CNC(=O)[C@@H]1Cn2c(=O)c(C(=O)NCCO)c(O)c3ncc(Cc4ccc(F)cc4)c(c32)O1 [Example 176] | 23.2
CNC(=O)c1c(O)c2ncc(Cc3ccc(F)c(Cl)c3)c3c2n(c1=O)C[C@@H](C(=O)NC)O3 [Example 177] | 1.2
CNC(=O)c1c(O)c2ncc(Cc3ccc(F)cc3)c3c2n(c1=O)C[C@@H](CC#N)O3 [Example 181] | 1.2
CNC(=O)c1c(O)c2ncc(Cc3ccc(F)cc3)c3c2n(c1=O)C[C@@H](Cn1ccnc1)O3 [Example 183] | 1.8
CNC[C@H]1Cn2c(=O)c(C(=O)NC)c(O)c3ncc(Cc4ccc(F)cc4)c(c32)O1 [Example 197] | 32
CNC(=O)c1c(O)c2ncc(Cc3ccc(F)cc3)c3c2n(c1=O)C[C@H](CC#N)O3 [Example 198] | 3
CNC(=O)C(=O)NC[C@@H]1Cn2c(=O)c(C(=O)NC)c(O)c3ncc(Cc4ccc(F)cc4)c(c32)O1 [Example 199] | 6.7
CNC(=O)c1c(O)c2ncc(Cc3ccc(F)cc3)c3c2n(c1=O)C[C@@H](CNC(C)=O)O3 [Example 200] | 1.1
